In patent US10000499B2, “Methyl diazepane orexin receptor antagonists” (MERCK SHARP & DOHME CORP., priority 2014, dated 2018):
Where two headings read alike, the source gives them in different places.

Key:
rat orexin-1 receptor = target: T1, rat orexin-1 receptor (Rattus norvegicus, UniProt P56718); assay: FLIPR Ca2+ flux assay, OX1R; format: cell-based; settings: CHO cells expressing rat orexin-1 receptor; agonist 70 pM Ala-6,12 orexin-A
T1 construct: expressed in transfected cells; host or cells: CHO cells (grown under G418 selection)
T1 sequence (P56718 1-416): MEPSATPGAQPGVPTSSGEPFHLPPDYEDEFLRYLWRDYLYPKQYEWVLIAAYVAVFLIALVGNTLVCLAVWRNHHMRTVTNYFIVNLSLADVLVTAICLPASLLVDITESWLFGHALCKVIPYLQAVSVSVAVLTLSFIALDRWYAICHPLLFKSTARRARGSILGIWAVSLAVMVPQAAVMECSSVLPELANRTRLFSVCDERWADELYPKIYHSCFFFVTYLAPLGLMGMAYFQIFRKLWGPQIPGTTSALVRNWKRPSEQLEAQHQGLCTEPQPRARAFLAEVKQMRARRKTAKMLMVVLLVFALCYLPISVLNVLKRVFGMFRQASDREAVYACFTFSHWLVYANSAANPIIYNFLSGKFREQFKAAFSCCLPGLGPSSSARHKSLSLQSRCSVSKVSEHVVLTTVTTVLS
Description: (§1) For intracellular calcium measurements, Chinese hamster ovary (CHO) cells expressing the rat orexin-1 receptor or the human orexin-2 receptor, are grown in Iscove's modified DMEM containing 2 mM L-glutamine, […], 1% hypoxanthine-thymidine supplement, 100 U/ml penicillin, 100 μg/ml streptomycin and 10% heat-inactivated fetal calf serum (FCS). The cells are seeded at 20,000 cells/well into Becton-Dickinson black 384-well clear bottom sterile plates coated with poly-D-lysine. All reagents were from GIBCO-Invitrogen Corp. The seeded plates are incubated overnight at 37° C. and 5% CO2. Ala-6,12 human orexin-A as the agonist is prepared as a 1 mM stock solution in 1% bovine serum albumin (BSA) and diluted in assay buffer (HBSS containing 20 mM HEPES, 0.1% BSA and 2.5 mM probenecid, pH7.4) for use in the assay at a final concentration of 70 pM. Test compounds are prepared as 10 mM stock solution in DMSO, then diluted in 384-well plates, first in DMSO, then assay buffer. On the day of the assay, cells are washed 3 times with 100 μl assay buffer and then incubated for 60 min (37° C., 5% CO2) in 60 μl assay buffer containing 1 μM Fluo-4AM ester, 0.02% pluronic acid, and 1% BSA, The dye loading solution is then aspirated and cells are washed 3 times with 100 μl assay buffer, 30 μl of that same buffer is left in each well. Within the Fluorescent Imaging Plate Reader (FLIPR, Molecular Devices), test compounds are added to the plate in a volume of 25 μl, incubated for 5 min and finally 25 μl of agonist is added. Fluorescence is measured for each well at 1 second intervals for 5 minutes and the height of each fluorescence peak is compared to the height of the fluorescence peak induced by 70 pM Ala-6,12 orexin-A with buffer in place of antagonist. […] The intrinsic orexin receptor antagonist activity of a compound which may be used in the present invention may be determined by these assays.

human orexin-2 receptor = target: T2, human orexin-2 receptor (Homo sapiens, UniProt O43614); assay: FLIPR Ca2+ flux assay, OX2R; format: cell-based; settings: for Fold Selective: OX2R over OX1R, from FLIPR values
T2 construct: expressed in transfected cells; host or cells: CHO cells (grown under G418 selection)
T2 sequence (O43614 1-444): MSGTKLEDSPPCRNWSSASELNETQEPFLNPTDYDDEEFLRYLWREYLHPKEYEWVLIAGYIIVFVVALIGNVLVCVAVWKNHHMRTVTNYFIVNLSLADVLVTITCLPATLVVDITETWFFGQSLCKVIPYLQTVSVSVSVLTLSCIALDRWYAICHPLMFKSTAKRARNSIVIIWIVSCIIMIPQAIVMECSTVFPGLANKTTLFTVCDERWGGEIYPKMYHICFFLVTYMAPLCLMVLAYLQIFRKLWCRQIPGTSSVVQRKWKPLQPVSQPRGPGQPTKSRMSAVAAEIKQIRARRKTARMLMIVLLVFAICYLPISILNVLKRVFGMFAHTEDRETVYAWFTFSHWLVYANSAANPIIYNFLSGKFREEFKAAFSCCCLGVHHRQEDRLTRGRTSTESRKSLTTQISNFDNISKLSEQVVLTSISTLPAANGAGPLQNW
Description: as §1

[1] = CHO cells expressing human orexin-2 receptor, agonist 70 pM Ala-6,12 orexin-A, read-out: OX2R FLIPR

Row | Compound | IC50 (rat orexin-1 receptor) | IC50 (human orexin-2 receptor; [1]) | Fold Selective (human orexin-2 receptor) | IC50 (human orexin-2 receptor) | selectivity between orexin-2 receptor and orexin-1 receptor (in words) (human orexin-2 receptor; comparison with diazepane compounds of U.S. Pat. No. 8,685,961)
1 | COc1ccnc(N2CC[C@@H](C)N(C(=O)c3cccnc3-n3cccn3)CC2)c1 [Example 5, (5R)-1-(4-methoxypyridin-2-yl)-5-methyl-4-{[2-(1H-pyrazol-1-yl)pyridin-3-yl]carbonyl}-1,4-diazepane] | > 10000 nM | 103 nM | 97 |  | 
2 | COc1ccnc(N2CC[C@@H](C)N(C(=O)c3ccsc3-n3nccn3)CC2)c1 [Example 3, (R)-(2-(2H-1,2,3-triazol-2-yl)thiophen-3-yl)(4-(4-methoxypyridin-2-yl)-7-methyl-1,4-diazepan-1-yl)methanone] | > 10000 nM | 122 nM | 82 |  | 
3 | C[C@@H]1CCN(c2cccc(N(C)C(=O)C3CC3)n2)CCN1C(=O)c1ccccc1-n1nccn1 [Example 18, N-methyl-N-{6-[(5R)-5-methyl-4-{[2-(2H-1,2,3-triazol-2-yl)phenyl]carbonyl}-1,4-diazepan-1-yl]pyridin-2-yl}cyclopropanecarboxamide] | 9130 nM | 71 nM | 128 |  | 
4 | COc1ccnc(N2CC[C@@H](C)N(C(=O)c3ccccc3C3CC3)CC2)c1 [Example 9, (5R)-4-[(2-cyclopropylphenyl)carbonyl]-1-(4-methoxypyridin-2-yl)-5-methyl-1,4-diazepane] | > 10000 nM | 125 nM | 80 |  | 
5 | C[C@@H]1CCN(c2cccc(C(C)(C)O)n2)CCN1C(=O)c1ccccc1-n1nccn1 [Example 20, (R)-(2-(2H-1,2,3-triazol-2-yl)phenyl)(4-(6-(2-hydroxypropan-2-yl)pyridin-2-yl)-7-methyl-1,4-diazepan-1-yl)methanone] | 1960 nM | 32 nM | 61 |  | 
6 | COc1ccnc(N2CC[C@@H](C)N(C(=O)c3cccnc3OCC(F)F)CC2)c1 [Example 6, (5R)-4-{[2-(2,2-difluoroethoxy)pyridin-3-yl]carbonyl}-1-(4-methoxypyridin-2-yl)-5-methyl-1,4-diazepane] | > 10000 nM | 183 nM | 54 |  | 
7 | Cc1ccnc(N2CC[C@@H](C)N(C(=O)c3ccccc3-n3nccn3)CC2)c1 [Example 1, (R)-(2-(2H-1,2,3-triazol-2-yl)phenyl)(7-methyl-4-(4-methylpyridin-2-yl)-1,4-diazepan-1-yl)methanone] | > 10000 nM |  | 68 | 147 nM | 
8 | CC(C)C(=O)N(C)c1cccc(N2CC[C@@H](C)N(C(=O)c3ccccc3-n3nccn3)CC2)n1 [Example 17, N,2-dimethyl-N-{6-[(5R)-5-methyl-4-{[2-(2H-1,2,3-triazol-2-yl)phenyl]carbonyl}-1,4-diazepan-1-yl]pyridin-2-yl}propanamide] | > 10000 nM | 48 nM | 208 |  | 
9 | COc1ccnc(N2CC[C@@H](C)N(C(=O)c3ccccc3-n3nccn3)CC2)c1 [Example 2, (R)-(2-(2H-1,2,3-triazol-2-yl)phenyl)(4-(4-methoxypyridin-2-yl)-7-methyl-1,4-diazepan-1-yl)methanone] | 2590 nM | 45 nM | 57 |  | 
10 | C[C@@H]1CCN(c2nccn3ccnc23)CCN1C(=O)c1cccnc1-n1cccn1 [Example 25, 8-[(5R)-5-methyl-4-{[2-(1H-pyrazol-1-yl)pyridin-3-yl]carbonyl}-1,4-diazepan-1-yl]imidazo[1,2-a]pyrazine] | > 10000 nM | 126 nM | 79 |  | 
11 | C[C@@H]1CCN(c2nccn3ccnc23)CCN1C(=O)c1ccccc1-n1nccn1 [Example 22, 8-[(5R)-5-methyl-4-{[2-(2H-1,2,3-triazol-2-yl)phenyl]carbonyl}-1,4-diazepan-1-yl]imidazo[1,2-a]pyrazine] | > 10000 nM | 50 nM | 200 |  | 
12 | CC(=O)N(C)c1cccc(N2CC[C@@H](C)N(C(=O)c3ccccc3-n3nccn3)CC2)n1 [Example 12, N-methyl-N-{6-[(5R)-5-methyl-4-{[2-(2H-1,2,3-triazol-2-yl)phenyl]carbonyl}-1,4-diazepan-1-yl]pyridin-2-yl}acetamide] | > 10000 nM | 85 nM | 117 |  | 
13 | C[C@@H]1CCN(c2cccc(N3CCN(C)C3=O)n2)CCN1C(=O)c1cc(F)ccc1-n1nccn1 [Example 16, 1-{6-[(5R)-4-{[5-fluoro-2-(2H-1,2,3-triazol-2-yl)phenyl]carbonyl}-5-methyl-1,4-diazepan-1-yl]pyridin-2-yl}-3-methylimidazolidin-2-one] | > 10000 nM | 197 nM | 50 |  | 
14 | CC(O)c1cccc(N2CC[C@@H](C)N(C(=O)c3ccccc3-n3nccn3)CC2)n1 (stereo partly drawn) [Example 19, (2-(2H-1,2,3-triazol-2-yl)phenyl)((7R)-4-(6-(1-hydroxyethyl)pyridin-2-yl)-7-methyl-1,4-diazepan-1-yl)methanone] | 2550 nM | 20 nM | 127 |  | 
15 | CCN(C(C)=O)c1cccc(N2CC[C@@H](C)N(C(=O)c3ccccc3-n3nccn3)CC2)n1 [Example 13, N-ethyl-N-{6-[(5R)-5-methyl-4-{[2-(2H-1,2,3-triazol-2-yl)phenyl]carbonyl}-1,4-diazepan-1-yl]pyridin-2-yl}acetamide] | > 10000 nM | 67 nM | 149 |  | 
16 | CCC(=O)N(C)c1cccc(N2CC[C@@H](C)N(C(=O)c3ccccc3-n3nccn3)CC2)n1 [Example 10, (R)-N-(6-(4-(2-(2H-1,2,3-triazol-2-yl)benzoyl)-5-methyl-1,4-diazepan-1-yl)pyridin-2-yl)-N-methylpropionamide] | > 10000 nM |  |  |  | 
17 | C[C@@H]1CCN(c2cccc(N3CCN(C)C3=O)n2)CCN1C(=O)c1ccccc1-n1nccn1 [Example 11, 1-methyl-3-{6-[(5R)-5-methyl-4-{[2-(2H-1,2,3-triazol-2-yl)phenyl]carbonyl}-1,4-diazepan-1-yl]pyridin-2-yl}imidazolidin-2-one] | 4760 nM | 104 nM | 46 |  | 
18 | C[C@@H]1CCN(c2cccc(N3CCN(C)C3=O)n2)CCN1C(=O)c1cccc(F)c1-n1nccn1 [Example 14, 1-{6-[(5R)-4-{[3-fluoro-2-(2H-1,2,3-triazol-2-yl)phenyl]carbonyl}-5-methyl-1,4-diazepan-1-yl]pyridin-2-yl}-3-methylimidazolidin-2-one] | 3180 nM | 58 nM | 55 |  | 
19 | Cc1ccc(-n2nccn2)c(C(=O)N2CCCN(c3nc4ccccc4o3)CC2)c1 [Example B-3, reference compound] |  |  |  |  | greater selectivity for the orexin-1 receptor than for the orexin-2 receptor
20 | C[C@@H]1CCN(c2nccn3nccc23)CCN1C(=O)c1ccccc1-n1nccn1 [Example 24, 4-[(5R)-5-methyl-4-{[2-(2H-1,2,3-triazol-2-yl)phenyl]carbonyl}-1,4-diazepan-1-yl]pyrazolo[1,5-a]pyrazine] | > 10000 nM | 113 nM | 88 |  | 
21 | COc1ccnc(N2CC[C@@H](C)N(C(=O)c3ccccc3C3CCC3)CC2)c1 [Example 8, (5R)-4-[(2-cyclobutylphenyl)carbonyl]-1-(4-methoxypyridin-2-yl)-5-methyl-1,4-diazepane] | > 10000 nM | 123 nM | 81 |  | 
